The test deals with T1, hNOD2 (Homo sapiens, UniProt Q9HC29).
T1 construct: host or cells: HEK-Blue NOD2 cells (HEK293)
The test can be described thus: HEK-Blue NOD2 cell line reporter assay (NF-κB-inducible SEAP). Format: cell-based. As for the experimental part:
To assess the NOD2 agonistic potential of the synthesized desmuramylpeptides at a cellular level, we employed the HEK-Blue NOD2 cell line reporter assay, a validated and commercially available method. All synthesized compounds were evaluated for their dose-dependent activities to establish their EC50 values.
The HEK-Blue NOD1 and NOD2 cell line reporter assay was generated from HEK293 cells through cotransfection of the hNOD1 or hNOD2 gene, respectively, along with an NF-κB-inducible secreted embryonic alkaline phosphatase (SEAP) reporter gene. Upon activation of NOD1 or NOD2, NF-κB triggers the production of SEAP, which can be quantitatively measured colorimetrically. […] After 18 h of incubation at 37 °C with 5% CO2, SEAP activity was measured spectrophotometrically by absorbance at 630 nm (BioTek Synergy microplate reader; Winooski, VT, USA). EC50 values were determined using Prism software (version 9; GraphPad Software, CA, USA). Each experiment was conducted in duplicate and repeated in at least two independent biological replicates.

Setting [1] is: HEK-Blue NOD2 cells, 18 h, NF-κB transcriptional activity (SEAP), read-out: EC50 (nM), NOD2 agonistic activity.

Like-named read-outs stand apart in the source and are kept apart here.

T1 sequence (Q9HC29 whole entry): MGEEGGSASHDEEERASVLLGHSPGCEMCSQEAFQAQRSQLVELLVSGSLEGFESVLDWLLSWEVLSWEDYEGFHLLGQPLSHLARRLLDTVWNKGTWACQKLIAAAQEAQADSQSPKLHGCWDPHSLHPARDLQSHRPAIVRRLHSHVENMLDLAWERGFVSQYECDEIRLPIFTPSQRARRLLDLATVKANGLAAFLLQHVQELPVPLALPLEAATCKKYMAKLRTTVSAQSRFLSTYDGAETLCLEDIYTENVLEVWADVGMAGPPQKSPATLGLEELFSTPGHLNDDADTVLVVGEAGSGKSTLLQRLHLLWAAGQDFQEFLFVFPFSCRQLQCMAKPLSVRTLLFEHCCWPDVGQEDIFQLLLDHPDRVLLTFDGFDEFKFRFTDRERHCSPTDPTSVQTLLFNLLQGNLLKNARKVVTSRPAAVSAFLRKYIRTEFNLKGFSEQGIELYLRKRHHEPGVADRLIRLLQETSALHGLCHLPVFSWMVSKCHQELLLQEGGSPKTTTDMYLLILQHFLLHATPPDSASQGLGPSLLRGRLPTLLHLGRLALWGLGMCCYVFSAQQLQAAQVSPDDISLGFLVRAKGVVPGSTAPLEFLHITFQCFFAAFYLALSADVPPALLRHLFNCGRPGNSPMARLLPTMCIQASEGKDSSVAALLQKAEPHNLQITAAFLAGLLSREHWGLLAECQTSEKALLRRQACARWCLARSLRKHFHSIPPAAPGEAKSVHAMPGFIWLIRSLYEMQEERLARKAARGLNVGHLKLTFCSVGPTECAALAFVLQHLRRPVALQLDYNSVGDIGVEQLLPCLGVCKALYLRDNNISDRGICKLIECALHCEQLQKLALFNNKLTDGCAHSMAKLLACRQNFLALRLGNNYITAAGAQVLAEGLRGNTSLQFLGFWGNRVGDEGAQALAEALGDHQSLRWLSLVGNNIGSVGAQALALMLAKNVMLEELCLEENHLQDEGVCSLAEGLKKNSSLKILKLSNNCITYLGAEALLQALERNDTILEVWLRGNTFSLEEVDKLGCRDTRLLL

Broadly, the EC50 is the concentration needed to bring the measured effect to its halfway point. With `CCCCCCCC/C=C\CCCCCCCC(=O)Oc1ccc(/C=C/C(=O)NCC(=O)N[C@H](C(=O)N[C@H](CCC(=O)OCC)C(=O)OCC)C(C)C)cc1OC` [Compound 18, Diethyl ((E)-3-(3-Methoxy-4-(oleoyloxy)phenyl)acryloyl)glycyl-L-valyl-D-glutamate], the “increase in potency compared to saturated counterpart 10” value (EC50 ratio versus 10 (stearoyl)) was determined as 17 fold. The EC50 under setting [1] was 422 ± 120 nM.

On to `CCCCCCCCC(=O)Oc1ccc(/C=C/C(=O)NCC(=O)N[C@H](C(=O)N[C@H](CCC(=O)OCC)C(=O)OCC)C(C)C)cc1OC` [Compound 6], for which the EC50 under setting [1] is 24.8 ± 2.3 nM.

Turning to `CCCCCCCCCC(=O)Oc1ccc(/C=C/C(=O)NCC(=O)N[C@H](C(=O)N[C@H](CCC(=O)OCC)C(=O)OCC)C(C)C)cc1OC` [Compound 7, Diethyl ((E)-3-(4-(Decanoyloxy)-3-methoxyphenyl)acryloyl)glycyl-L-valyl-D-glutamate], under setting [1], the EC50 is 30.6 ± 5.5 nM.

For the molecule `CC/C=C\C/C=C\C/C=C\C/C=C\C/C=C\C/C=C\CCC(=O)Oc1ccc(/C=C/C(=O)NCC(=O)N[C@H](C(=O)N[C@H](CCC(=O)OCC)C(=O)OCC)C(C)C)cc1OC` [Compound 22, Diethyl ((E)-3-(4-(((4Z,7Z,10Z,13Z,16Z,19Z)-Docosa-4,7,10,13,16,19-hexaenoyl)oxy)-3-methoxyphenyl)acryloyl)glycyl-L-valyl-D-glutamate], the EC50 under setting [1] was 200 ± 50.8 nM.

Regarding `CCCCC/C=C\C/C=C\CCCCCCCC(=O)Oc1ccc(/C=C/C(=O)NCC(=O)N[C@H](C(=O)N[C@H](CCC(=O)OCC)C(=O)OCC)C(C)C)cc1OC` [Compound 19, Diethyl ((E)-3-(3-Methoxy-4-(((9Z,12Z)-octadeca-9,12-dienoyl)oxy)phenyl)acryloyl)glycyl-L-valyl-D-glutamate], the EC50 under setting [1] stood at 198 ± 39.1 nM.

For `CCCCCCCCCCCCCCCCCC(=O)Oc1ccc(/C=C/C(=O)NCC(=O)N[C@H](C(=O)N[C@H](CCC(=O)OCC)C(=O)OCC)C(C)C)cc1OC` [Compound 10], the EC50 is, setting by setting: under setting [1], 7200 ± 2640 nM; (HEK-Blue NOD2 cells, 18 h, read-out: EC50, NOD2 agonistic activity (text)) 7200 nM.

Consider `CCCCCCC(CC)C(=O)Oc1ccc(/C=C/C(=O)NCC(=O)N[C@H](C(=O)N[C@H](CCC(=O)OCC)C(=O)OCC)C(C)C)cc1OC` (stereo partly drawn) [Compound 13, Diethyl ((E)-3-(4-((2-Ethyloctanoyl)oxy)-3-methoxyphenyl)acryloyl)glycyl-L-valyl-D-glutamate], for which the EC50 was 9.7 nM under setting [1] and 9.7 nM (supplementary SMILES csv, read-out: HEK-blue hNOD2 EC50).

Regarding `CCCCCC(CCC)C(=O)Oc1ccc(/C=C/C(=O)NCC(=O)N[C@H](C(=O)N[C@H](CCC(=O)OCC)C(=O)OCC)C(C)C)cc1OC` (stereo partly drawn) [Compound 14, Diethyl ((E)-3-(3-Methoxy-4-((2-propylheptanoyl)oxy)phenyl)acryloyl)glycyl-L-valyl-D-glutamate], the EC50 under setting [1] stood at 19.4 ± 3.6 nM.

`CCCCCC(C)C(=O)Oc1ccc(/C=C/C(=O)NCC(=O)N[C@H](C(=O)N[C@H](CCC(=O)OCC)C(=O)OCC)C(C)C)cc1OC` (stereo partly drawn) [Compound 11, Diethyl ((E)-3-(3-Methoxy-4-((2-methylheptanoyl)oxy)phenyl)acryloyl)glycyl-L-valyl-D-glutamate]: the concentration giving a half-maximal response (EC50) under setting [1] was determined as 11.7 ± 2.8 nM.

Consider `CCOC(=O)CC[C@@H](NC(=O)[C@@H](NC(=O)CNC(=O)/C=C/c1ccc(OC(=O)CCCC2CCCCC2)c(OC)c1)C(C)C)C(=O)OCC` [Compound 16, Diethyl ((E)-3-(4-((4-Cyclohexylbutanoyl)oxy)-3-methoxyphenyl)acryloyl)glycyl-L-valyl-D-glutamate], for which, under setting [1], the EC50 was 25.8 ± 3.3 nM.

Regarding `CCCCCC(CCCCC)C(=O)Oc1ccc(/C=C/C(=O)NCC(=O)N[C@H](C(=O)N[C@H](CCC(=O)OCC)C(=O)OCC)C(C)C)cc1OC` [Compound 17, Diethyl ((E)-3-(3-Methoxy-4-((2-pentylheptanoyl)oxy)phenyl)acryloyl)glycyl-L-valyl-D-glutamate], under “EC50 ratio versus 2 (lauroyl)”, the “drop of activity compared to 2” value came out at 9 factor. Also, the EC50 under setting [1] worked out at 88.6 ± 10.5 nM.

Take `CCCCCC(=O)Oc1ccc(/C=C/C(=O)NCC(=O)N[C@H](C(=O)N[C@H](CCC(=O)OCC)C(=O)OCC)C(C)C)cc1OC` [Compound 4, Diethyl ((E)-3-(4-(Hexanoyloxy)-3-methoxyphenyl)acryloyl)glycyl-L-valyl-D-glutamate]: the EC50 under setting [1] stood at 20.2 ± 1.2 nM.

For `CCOC(=O)[C@@H](CCC(=O)NCCCCN)NC(=O)[C@@H](NC(=O)CNC(=O)/C=C/c1ccc(O)c(OC)c1)C(C)C` [Compound 30, Ethyl N^5-(4-Aminobutyl)-N^2-((E)-3-(4-hydroxy-3-methoxyphenyl)acryloyl)glycyl-L-valyl-D-glutaminate], under setting [1], the EC50 was over 10000 nM.

As for `CCOC(=O)CC[C@@H](NC(=O)[C@@H](NC(=O)CNC(=O)/C=C/c1ccc(OC(=O)CCCCCCCCCCCCCO)c(OC)c1)C(C)C)C(=O)OCC` [Compound 24, Diethyl ((E)-3-(4-((14-Hydroxytetradecanoyl)oxy)-3-methoxyphenyl)acryloyl)glycyl-L-valyl-D-glutamate], the “boost of NOD2 agonistic activity compared to 8” value (EC50 ratio versus unsubstituted myristoylated 8) worked out at 6 fold. The EC50 under setting [1] came out at 12.3 ± 1.5 nM.

`CCCCCCCCCCCCCC(=O)Oc1ccc(/C=C/C(=O)NCC(=O)N[C@H](C(=O)N[C@H](CCC(=O)OCC)C(=O)OCC)C(C)C)cc1OC` [Compound 8, Diethyl ((E)-3-(3-Methoxy-4-(tetradecanoyloxy)phenyl)acryloyl)glycyl-L-valyl-D-glutamate]: under setting [1], the EC50 was 69.5 ± 5.1 nM.

For the molecule `CCCCC(CCCC)C(=O)Oc1ccc(/C=C/C(=O)NCC(=O)N[C@H](C(=O)N[C@H](CCC(=O)OCC)C(=O)OCC)C(C)C)cc1OC` [Compound 15, Diethyl ((E)-3-(4-((2-Butylhexanoyl)oxy)-3-methoxyphenyl)acryloyl)glycyl-L-valyl-D-glutamate], the EC50 under setting [1] was 22.4 ± 5.9 nM.

`CC/C=C\C/C=C\C/C=C\CCCCCCCC(=O)Oc1ccc(/C=C/C(=O)NCC(=O)N[C@H](C(=O)N[C@H](CCC(=O)OCC)C(=O)OCC)C(C)C)cc1OC` [Compound 20, Diethyl ((E)-3-(3-Methoxy-4-(((9Z,12Z,15Z)-octadeca-9,12,15-trienoyl)oxy)phenyl)acryloyl)glycyl-L-valyl-D-glutamate]: the EC50 under setting [1] amounted to 135 ± 28.9 nM.

For `CCCCCCCC(=O)Oc1ccc(/C=C/C(=O)NCC(=O)N[C@H](C(=O)N[C@H](CCC(=O)OCC)C(=O)OCC)C(C)C)cc1OC` [Compound 5, Diethyl ((E)-3-(3-Methoxy-4-(octanoyloxy)phenyl)acryloyl)glycyl-L-valyl-D-glutamate], the EC50 under setting [1] was found to be 25.5 ± 2.2 nM.

Consider `CCCCC(CC)C(=O)Oc1ccc(/C=C/C(=O)NCC(=O)N[C@H](C(=O)N[C@H](CCC(=O)OCC)C(=O)OCC)C(C)C)cc1OC` (stereo partly drawn) [Compound 12, Diethyl ((E)-3-(4-((2-ethylhexanoyl)oxy)-3-methoxyphenyl)acryloyl)glycyl-L-valyl-D-glutamate], for which the EC50 under setting [1] was found to be 21.6 ± 6.5 nM.

`CCOC(=O)[C@@H](CCC(=O)NCCCNCCCCN)NC(=O)[C@@H](NC(=O)CNC(=O)/C=C/c1ccc(O)c(OC)c1)C(C)C` [Compound 34, Ethyl N^5-(3-((4-Aminobutyl)amino)propyl)-N^2-((E)-3-(4-hydroxy-3-methoxyphenyl)acryloyl)glycyl-L-valyl-D-glutaminate]: under setting [1], the EC50 was over 10000 nM.

As for `CCCCC/C=C\C/C=C\C/C=C\CCCCC(=O)Oc1ccc(/C=C/C(=O)NCC(=O)N[C@H](C(=O)N[C@H](CCC(=O)OCC)C(=O)OCC)C(C)C)cc1OC` [Compound 21, Diethyl ((E)-3-(3-Methoxy-4-(((6Z,9Z,12Z)-octadeca-6,9,12-trienoyl)oxy)phenyl)acryloyl)glycyl-L-valyl-D-glutamate], under setting [1], the EC50 amounted to 205 ± 28.6 nM.

These data come from paper PMC11472310, “Distinctive Immune Signatures Driven by Structural Alterations in Desmuramylpeptide NOD2 Agonists” (Journal of Medicinal Chemistry, 2024).
